Source: patent US20240398822A1, “METHODS AND COMPOSITIONS FOR TREATING AND MANAGING ALZHEIMER'S DISEASE” (Pharmatrophix, Inc., priority 2021, published 2024)

Assays:
[1] = tested on: YKL-40; experiment: Phase IIa CSF glial biomarker YKL-40; type: in vivo, human
Source text: (§1) CSF samples were obtained at screening Visit and final Visit via lumbar puncture to determine levels of tau, p-tau, Aβ40, Aβ42 and AChE activity as an initial set of CSF biomarkers. Aliquots of CSF were made available for emerging CSF biomarker methods such as measurement of additional biomarkers including neurofilaments light chain, neurogranin, SNAP-25, synaptotagmin, YKL-40, TREM2, tau oligomers and for measurement of drug level in selected patients based on the time period between last dose of drug and CSF sampling (FIG. 25 and FIG. 58).
(§2) Baseline CSF samples are obtained prior to administration via lumbar puncture. These samples are used to determine levels of tau, p-tau, Aβ40, Aβ42, AChE, neurofilament light chain, SNAP-25, synaptotagmin-1, neurogranin, sTREM, and YKL-40. Aliquots of CSF are also made available for emerging CSF biomarker methods such as measurement of tau oligomers and for measurement of drug level in selected patients based on time period between last dose of the salt of Formula (II) and CSF sampling. […] Many of these biomarkers can also be measured in blood or plasma. The change in values over the time period from pre-treatment to post-treatment are of particular importance. […] Absolute levels at single time points of neurofilament light chain, SNAP-25, synaptotagmin-1, neurogranin, sTREM, and YKL-40 in CSF or blood or plasma are of less value given differences in assay techniques and wide variation in absolute levels within normal subjects and within and across AD subjects. In contrast, absolute levels of Aβ42 and 40 at baseline are useful biomarkers indicating the presence of amyloid pathology as low levels of Aβ42 and 40 at a given time point are consistent with amyloid pathology.

[2] = Estimating human brain exposure to drug; type: in vivo; conditions: oral dosing at 200 mg bid and 400 mg bid
Procedure: Key inclusion criteria for the 2a trial include a diagnosis of mild-moderate AD by McKhann criteria and a CSF measure of Ab 42/40 ratio under 0.089 OR a Ab 42 level <550 ng/L (FIG. 28). These criteria are discussed in Schindler et al. 2018.

[3] = tested on: tau; experiment: Phase IIa CSF total tau; type: in vivo, human
Source text: as §1, §2

[4] = tested on: SNAP-25; experiment: Phase IIa CSF pre-synaptic biomarker SNAP-25; type: in vivo, human
Source text: as §1, §2

[5] = tested on: Aβ42, Aβ40; experiment: Phase IIa CSF AD core biomarkers Aβ42 and Aβ40; type: in vivo, human
Source text: as §1, §2

[6] = Phase 1 SAD/MAD pharmacokinetics; type: in vivo; conditions: in vivo
Source text: The phase 1 study was placebo controlled and double blinded and included 52 subjects in SAD studies and 20 subjects in MAD studies.

[7] = annual percent change (APC), 6-month trial period

With `CC[C@H](C)[C@H](N)C(=O)NCCN1CCOCC1` [LM11A-31-BHS, Tris[(2S,3S)-2-amino-3-methyl-N-(2-morpholinoethyl)pentanamide] tetra(monohydrogensulfate), monosulfate] the “CSF YKL40 significant increase seen with placebo, drug dose analysis” value ([1]; 200 and 400 mg doses) was “no longer present at the 200 and 400 mg doses”, the “drug effect in slowing or inhibiting the pathological glial response (YKL-40), younger (<72 years) versus older (>=72 years)” value [1, 7] was “greater than that found in the older group” and the “CSF YKL-40 increase in the drug group” value ([1]; combined drug group, difference between placebo and drug groups p=0.03) was “This increase was not detected in the drug group”. The “estimated human brain levels of drug” value [2] was “in a range found to engage target mechanisms and derive therapeutic benefit in mouse models”, the “CSF total tau, drug dose analysis” value ([3]; 200 mg bid or 400 mg bid versus placebo) was “trends for lowering of total tau reduction, especially at the 400 mg dose” and the “drug effect in slowing or inhibiting the CSF tau increase, younger (<72 years) versus older (>=72 years)” value [3, 7] was “greater than that found in the older group”. For the same compound, the “effect compared to placebo in decreasing the elevation of CSF tau” value ([3]; combined drug group, 6 month treatment period, p=0.06) was “near-significant effect”, the “increase of CSF tau levels in the drug group” value ([3]; combined drug group, 6 months, p=0.2 (placebo increase p=0.003)) was “no longer detected at a significant level” and the “CSF SNAP-25, drug dose analysis” value ([4]; 200 and 400 mg doses, post hoc Dunn's test does not reach significance) was “significant main effect of drug dose”. For the same compound, the “drug effect in slowing or inhibiting the SNAP-25 increase, younger (<72 years) versus older (>=72 years)” value [4, 7] was “greater than that found in the older group”, the “CSF SNAP-25 change in the drug group” value ([4]; combined drug group, 6 months, drug effect p=0.01) was “no increase was detected” and the “CSF Ab 42 change in the drug group” value ([5]; combined drug group, 26 weeks, p=0.003) was “went down by a significant amount”. The “CSF Ab 42, difference between placebo and drug” value ([5]; combined drug group, p=0.03) was “significant”, the “effect on levels of Aβ42 and 40” value ([5]; daily treatment, CSF) was “ability to lower levels of Aβ42 and 40” and the food effect ([6]; human) was “fed subjects having a higher LM11A-31 parent exposure than fasted subjects”. The “time to reach steady state upon multiple dosing” value ([6]; human) was “approximately 5 days post dose”, the “gender difference in exposure” value [6] was “female subjects having a greater exposure than males” and the “pharmacokinetics after single oral doses” value ([6]; po) was “linear pharmacokinetics”.
